# Laboratory results taken from PMC8465942, “Cyano- and Ketone-Containing Selenoesters as Multi-Target Compounds against Resistant Cancers” (Cancers, 2021).
# Entries after “also recorded” stand apart in the source; their conditions may differ. Read-outs that look alike come from different tables or passages of the source. Marks after values point to notes of the source that are not given here.
# Columns and labels:
# [1] = test system: HepG2 (hepatocellular carcinoma); test: Cytotoxicity on HepG2 cells; format: cell-based; conditions: Homo sapiens
# [2] = Cytotoxicity (MTT) on normal MRC-5 fibroblasts; format: cell-based; conditions: human
# Procedure, shortened: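 Adherent MRC-5 human embryonal lung fibroblasts in EMEM exposed to two-fold dilutions (0.19–100 μM) for 24 h at 37 °C. MTT added for 4 h, then SDS/HCl overnight; OD read at 540 nm (ref. 630 nm). IC50 from non-linear regression of triplicate experiments.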
# [3] = test system: HeLa (cervical adenocarcinoma); test: Cytotoxicity on HeLa cells; format: cell-based; conditions: Homo sapiens
# [4] = test system: B16 (skin melanoma); test: Cytotoxicity on B16 cells; format: cell-based, murine; conditions: Mus musculus
# [5] = test system: resistant Colo 320 colon adenocarcinoma cells expressing the ABCB1 transporter; test: Checkerboard combination assay with doxorubicin; format: cell-based, human; conditions: for Interaction with doxorubicin: in at least one of the ratios tested
# [6] = test system: Colo 320/MDR-LRP human colonic adenocarcinoma cell line; test: Cytotoxicity (MTT) on resistant Colo 320 cells; format: cell-based; conditions: for IC50: Homo sapiens, read-out: Colo 320 (IC50 µM) Mean; for SI MRC-5/Colo 320: ratio IC50 non-tumour cells / IC50 cancer cells
# Procedure, shortened: (§1)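 10^4 cells/well in RPMI-1640 were exposed to two-fold serial dilutions (0.19–100 μM) for 24 h at 37 °C. MTT was added for 4 h, then SDS/HCl overnight, with OD read at 540 nm (ref. 630 nm). IC50 = dose giving 50% growth reduction, from non-linear regression of triplicates.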
# [7] = test system: HeLa (cervical adenocarcinoma); test: Cytotoxicity on HeLa cells; format: cell-based, human; conditions: ratio IC50 non-tumour cells / IC50 cancer cells
# [8] = test system: Colo 205 human colonic adenocarcinoma cell line; test: Cytotoxicity (MTT) on sensitive Colo 205 cells; format: cell-based; conditions: for IC50: Homo sapiens, read-out: Colo 205 (IC50 µM) Mean; for SI MRC-5/Colo 205: ratio IC50 non-tumour cells / IC50 cancer cells
# Procedure, shortened: as §1
# [9] = ratio 0.7:1, starting conc. 6 µM
# [10] = ratio 1.4:1, starting conc. 6 µM
# [11] = ratio 2.8:1, starting conc. 6 µM
# [12] = ratio 5.6:1, starting conc. 6 µM
# [13] = ratio 11.2:1, starting conc. 6 µM
# [14] = ratio 1.2:1, starting conc. 10 µM
# [15] = ratio 2.4:1, starting conc. 10 µM
# [16] = ratio 4.8:1, starting conc. 10 µM
# [17] = ratio 9.6:1, starting conc. 10 µM
# [18] = ratio 19.2:1, starting conc. 10 µM
# [19] = ratio 38.4:1, starting conc. 10 µM
SMILES,IC50 [1],IC50 [3],IC50 [4],"Type of Interaction [5, 9]","Type of Interaction [5, 10]","Type of Interaction [5, 11]","Type of Interaction [5, 12]","Type of Interaction [5, 13]",SI MRC-5/Colo 320 [6],SI MRC-5/HeLa [7],SI MRC-5/Colo 205 [8],IC50 at 24 h [2],Interaction with doxorubicin [5],"IC50 ([6]; COLO 320, 24 h, MTT)","IC50 ([8]; COLO 205, 24 h, MTT)","Type of Interaction [5, 14]","Type of Interaction [5, 15]","Type of Interaction [5, 16]","Type of Interaction [5, 17]","Type of Interaction [5, 18]",other results
"CC(=O)C[Se]C(=O)c1ccc(C(C)(C)C)cc1 [K7, Se-(2-Oxopropyl) 4-(Tert-butyl)benzoselenoate]",3.7 µM,2.7 µM,1.4 µM,Moderate antagonism,Antagonism,Moderate antagonism,Moderate antagonism,Antagonism,1.45,1.4,1.38,–,–,–,–,–,–,–,–,–,"IC50 at 24 h ([2]; 24 h, MTT, read-out: MRC-5 (IC50 µM) Mean): 3.72 µM; Type of Interaction ([5]; ratio 22.4:1, starting conc. 6 µM): Antagonism; IC50 ([6]; COLO 320, 24 h): 2.57 µM; IC50 ([8]; COLO 205, 24 h): 2.69 µM"
"CC(=O)C[Se]C(=O)c1cc(F)c(F)cc1F [K8, Se-(2-Oxopropyl) 2,4,5-Trifluorobenzoselenoate]",4 µM,2 µM,1.4 µM,Strong synergism,Antagonism,Antagonism,Antagonism,Antagonism,1.05,1.3,1.12,2.5 µM,synergistic manner; also recorded: interact synergistically,2.37 µM,2.24 µM,–,–,–,–,–,–
"N#CC[Se]C(=O)c1cccc(F)c1 [N2, Se-(Cyanomethyl) 3-Fluorobenzoselenoate]",5.6 µM,5.2 µM,2.6 µM,–,–,–,–,–,>6 *,>6 *,>6 *,> 100 µM,synergistic manner; also recorded: synergistic effect,7.01 µM,2.96 µM,–,–,–,–,–,"Type of Interaction ([5]; ratio 1.7:1, starting conc. 15 µM): Synergism; Type of Interaction ([5]; ratio 3.4:1, starting conc. 15 µM): Antagonism; Type of Interaction ([5]; ratio 6.8:1, starting conc. 15 µM): Synergism; Type of Interaction ([5]; ratio 13.6:1, starting conc. 15 µM): Moderate antagonism; Type of Interaction ([5]; ratio 27.2:1, starting conc. 15 µM): Antagonism; Type of Interaction ([5]; ratio 54.4:1, starting conc. 15 µM): Antagonism"
"N#CC[Se]C(=O)c1ccc(Br)cc1 [N3, Se-(Cyanomethyl) 4-Bromobenzoselenoate]",9.6 µM,2.4 µM,2.8 µM,–,–,–,–,–,>6 *,>6 *,>6 *,> 100 µM,synergistic manner; also recorded: synergistic effect,4.37 µM,2.1 µM,Antagonism,Strong antagonism,Moderate synergism,Additive effect,Slight antagonism,"Type of Interaction [5, 19]: Moderate antagonism"
"N#CC[Se]C(=O)c1ccccc1C(F)(F)F [N4, Se-(Cyanomethyl) 2-(Trifluoromethyl)benzoselenoate]",5.2 µM,2.5 µM,1.4 µM,–,–,–,–,–,>6 *,>6 *,–,> 100 µM,synergistic manner; also recorded: synergistic effect,5.57 µM,1.97 µM,Antagonism,Strong antagonism,Moderate synergism,Additive effect,Slight antagonism,"Type of Interaction [5, 19]: Moderate antagonism"
"N#CC[Se]C(=O)c1cc(C(F)(F)F)cc(C(F)(F)F)c1 [N7, Se-(Cyanomethyl) 3,5-Bis(trifluoromethyl)benzoselenoate]",11.8 µM,2.1 µM,1.6 µM,–,–,–,–,–,>6 *,>6 *,–,> 100 µM,synergistic manner; also recorded: synergistic effect,3.78 µM,1.98 µM,–,–,–,–,–,"Type of Interaction ([5]; ratio 0.9:1, starting conc. 8 µM): Antagonism; Type of Interaction ([5]; ratio 1.8:1, starting conc. 8 µM): Strong antagonism; Type of Interaction ([5]; ratio 3.6:1, starting conc. 8 µM): Slight synergism; Type of Interaction ([5]; ratio 7.2:1, starting conc. 8 µM): Antagonism; Type of Interaction ([5]; ratio 14.4:1, starting conc. 8 µM): Antagonism; Type of Interaction ([5]; ratio 28.8:1, starting conc. 8 µM): Additive effect"
